Experimental data from ChEMBL document CHEMBL1773053, “Immunosuppressive but non-LasR-inducing analogues of the Pseudomonas aeruginosa quorum-sensing molecule N-(3-oxododecanoyl)-l-homoserine lactone” (J Med Chem, 2011).

Columns and labels:
[1] = Immunosuppressive activity in mouse concanavalin A-stimulated peripheral blood leukocyte assessed as inhibition of leukocyte proliferation by [3H]thymidine incorporation assay; format: functional
[2] = test system: Jurkat; experiment: Cytotoxicity against human Jurkat E6-1 cells assessed as cell viability after 24 hrs by trypan blue exclusion assay; format: cell-based; conditions: for EC50: Homo sapiens, Jurkat; for Activity: human, jurkat
[3] = target: T1, Transcriptional activator protein LasR (Pseudomonas aeruginosa (strain ATCC 15692 / PAO1 / 1C / PRS 101 / LMG12228)) (UniProt P25084); experiment: Induction of lasR-mediated quorum sensing in Pseudomonas aeruginosa PAKR02 harboring lasB::luxCDABE gene assessed as lasR-induction ratio at 10^-4 M after 24 hrs by bioluminescence assay relative to control
T1 sequence (whole entry): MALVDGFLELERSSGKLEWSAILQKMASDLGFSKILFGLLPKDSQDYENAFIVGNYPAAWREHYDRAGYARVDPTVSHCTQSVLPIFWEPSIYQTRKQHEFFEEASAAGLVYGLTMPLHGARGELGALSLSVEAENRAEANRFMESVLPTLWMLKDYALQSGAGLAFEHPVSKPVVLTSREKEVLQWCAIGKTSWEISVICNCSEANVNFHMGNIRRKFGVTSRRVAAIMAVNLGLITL

[4] = target: T1, Transcriptional activator protein LasR (Pseudomonas aeruginosa (strain ATCC 15692 / PAO1 / 1C / PRS 101 / LMG12228)); experiment: Inhibition of OdDHL-induced LasR activation in Pseudomonas aeruginosa PAKR02 harboring lasB::luxCDABE gene assessed as remaining Las activity at 10^-4 M after 24 hrs by bioluminescence assay

| Compound | EC50 [1] | EC50 [2] | Ratio [3] | Activity [4] | Activity [2] |
| --- | --- | --- | --- | --- | --- |
| CCCCCCCCCS(=O)(=O)CC(=O)N[C@H]1CCOC1=O | 31 µM | 200 µM | 0.92 | 72% | – |
| CCCCCCCCNC(=O)CC(=O)Nc1ccccn1 | 18 µM | > 1000 µM | 0.91 | 41% | – |
| CCCCCCCCNS(=O)(=O)CC(=O)N[C@H]1CCOC1=O | 13 µM | 900 µM | 1.02 | 101% | – |
| CCCCCCCCNC(=O)CC(=O)Nc1cccc(C(N)=O)c1 | 15 µM | 700 µM | 0.81 | 59% | – |
| CCCCCCCCNC(=O)CC(=O)N[C@@H]1CCCC[C@@H]1O | 32 µM | 400 µM | 0.92 | 45% | – |
| CCCCCCCCNC(=O)C(F)(F)C(=O)N[C@H]1CCOC1=O | 97 µM | > 1000 µM | – | 6% | – |
| CCCCCCCCCCC[S+]([O-])CC(=O)N[C@H]1CCOC1=O (some centres undefined) | 8.2 µM | 45 µM | 0.77 | 63% | – |
| CCCCCCCCCCCNC(=O)CC(=O)N[C@H]1CCOC1=O | 12 µM | 140 µM | 0.72 | 14% | – |
| CCCCCCCCNC(=O)CC(=O)NC1CCCCCC1 | 14 µM | 78 µM | 0.9 | 19% | – |
| CCCCCCCCNC(=O)CC(=O)Nc1ccc2[nH]ncc2c1 | 55 µM | > 1000 µM | 1.1 | 62% | – |
| CCCCCCCCNC(=O)C(F)C(=O)N[C@H]1CCOC1=O (some centres undefined) | 26 µM | 800 µM | 0.91 | 57% | – |
| CCOCCOCCNC(=O)CC(=O)N[C@H]1CCOC1=O | > 1000 µM | > 1000 µM | 1.02 | 61% | – |
| CCCCCCCCCNC(=O)CC(=O)N[C@H]1CCOC1=O | 23 µM | 530 µM | 1.01 | 3.4% | – |
| CCCCCCCCNC(=O)CC(=O)Nc1ccccc1C(=O)N(C)C | 22 µM | 160 µM | 0.91 | 37% | – |
| CCCCCCCCCN(O)CC(=O)N[C@H]1CCOC1=O | 13 µM | 400 µM | 0.99 | 69% | – |
| CCCCCCCCNC(=O)CC(=O)N[C@@H]1CCC[C@@H]1O | 43 µM | 400 µM | 0.96 | 55% | – |
| CCCCCCCCCSCC(=O)N[C@H]1CCOC1=O | > 1000 µM | > 1000 µM | 0.9 | 51% | – |
| CCCCCCCCC[S+]([O-])CC(=O)N[C@H]1CCOC1=O (some centres undefined) | 27 µM | 720 µM | – | – | – |
| CCOCCOCCNC(=O)CC(=O)N[C@@H]1CCC[C@@H]1O | 192 µM | 700 µM | 1.03 | 89% | – |
| CCCCCCCCNC(=O)CS(=O)(=O)N[C@H]1CCOC1=O | 9.1 µM | 220 µM | 1.04 | 86% | – |

| Compound | EC50 [1] | EC50 [2] | Ratio [3] | Activity [4] | Activity [2] |
| --- | --- | --- | --- | --- | --- |
| CCCCCCCCC/C(O)=C1/C(=O)N[C@@H](CCO)C1=O | 29 µM | 52 µM | 0.96 | 21% | – |
| CCCCCCCCCC(=O)CC(=O)N[C@H]1CCOC1=O | 21 µM | 250 µM | 12.3 | – | – |
| CCCCCCCCNC(=O)CC(=O)Nc1cc(Cl)ccc1O | 9.3 µM | > 1000 µM | 0.62 | 66% | – |
| CCCCCCCCOC(=O)CC(=O)N[C@H]1CCOC1=O | 37 µM | 500 µM | 1.18 | 46% | – |
| CCCCCCCCN(CCC)C(=O)CC(=O)N[C@H]1CCOC1=O | 28 µM | 200 µM | 0.99 | 101% | – |
| CCCCCCCCN(CCO)C(=O)CC(=O)N[C@H]1CCOC1=O | 41 µM | 300 µM | 1.01 | 16% | – |
| CCCCCCCCCC(=O)CC(=O)N[C@H]1CC(=O)NC1=O | > 1000 µM | – | 1.04 | 82% | Non-toxic |
| CCCCOCCCNC(=O)CC(=O)N[C@H]1CCOC1=O | 101 µM | > 1000 µM | 0.97 | 108% | – |
| CCCCCCCCCN(N)CC(=O)N[C@H]1CCOC1=O | 8.9 µM | 410 µM | 1.03 | 55% | – |
| CCCCCCCCNC(=O)CC(=O)Nc1ccccc1C(N)=O | 25 µM | 120 µM | 0.8 | 23% | – |
| CCCCOCCCNC(=O)CC(=O)N[C@@H]1CCC[C@@H]1O | 160 µM | > 1000 µM | 0.94 | 111% | – |
| CCCCCCCCCC(=O)CC(=O)Nc1nccs1 | 25 µM | 800 µM | 0.87 | 51% | – |
| CCCCCCCCCC(CC(=O)N[C@H]1CCOC1=O)OC(C)=O (mixture of isomers) | 5.2 µM | 120 µM | 1.13 | 70% | – |
| CCCCCCCCCC(=O)CC(=O)N[C@H]1CCC(=O)NC1=O | 77 µM | – | 1.03 | 71% | Non-toxic |
| CCCCCCCCCCCS(=O)(=O)CC(=O)N[C@H]1CCOC1=O | 8.3 µM | 170 µM | 0.75 | 76% | – |
| CCCCCCCCCN(CC(=O)N[C@H]1CCOC1=O)OCc1ccccc1 | 17 µM | 63 µM | – | – | – |
| CCCCCCCCNC(=O)CC(=O)N[C@H]1CCOC1=O | 35 µM | 200 µM | 1.06 | 20% | – |
| CCCCCCCCNC(=O)CC(=O)Nc1nccs1 | 27 µM | 600 µM | 0.9 | 64% | – |
| CCCCCCCCN(C)C(=O)CC(=O)N[C@H]1CCOC1=O | 22 µM | > 1000 µM | 0.91 | 60% | – |
| CCCCCCCCNC(=O)CC(=O)Nc1ccccc1O | 22 µM | > 1000 µM | 0.79 | 29% | – |
